From US10174053B2, “2 substituted cephem compounds” (Glaxo Group Limited, priority 2012, dated 2019)
In brackets after ≈: the same amount, converted by molar mass. Like-named read-outs stand apart in the source and are kept apart here.

Columns and labels:
Experiment in all cases: In vitro antimicrobial activity, MIC by broth microdilution (CLSI)
Format in all cases: cell-based
A. baumannii JMI2346 = settings: Acinetobacter baumannii
Experimental: (§1) Compound (I) of the invention was evaluated for in vitro antimicrobial activity thereof.
(§2) Measurement of Minimum Inhibitory Concentration (MIC: μg/mL) was conducted according to CLSI (Clinical and Laboratory Standards Institute) method, and the amount of bacteria for inoculation was 5×10^5 cfu/mL, and cation-adjusted Iso-Sensitest broth containing human Apo-transferrin was used as a test medium, and the experiment was conducted using broth microdilution method. The bacteria used are listed below.

A. baumannii JMI7 = settings: Acinetobacter baumannii
Experimental: as §1, §2

E. Coli JMI1890 = settings: Escherichia coli, read-out: Minimum Inhibitory Concentration (MIC) E. Coli JMI:1890
Experimental: as §1, §2

K. pneumoniae SR01358 = settings: Klebsiella pneumoniae
Experimental: as §1, §2

[1] = JMI2346, OXA-51, TEM, ESBL and OXA-type carbapenemase producing strain, 5×10^5 cfu/mL, cation-adjusted Iso-Sensitest broth containing human Apo-transferrin, read-out: Minimum Inhibitory Concentration (MIC) A. baumannii JMI:2346
[2] = JMI7, PER-1, OXA-23, 51, ESBL and OXA-type carbapenemase producing strain, 5×10^5 cfu/mL, cation-adjusted Iso-Sensitest broth containing human Apo-transferrin, read-out: Minimum Inhibitory Concentration (MIC) A. baumannii JMI:7
[3] = PER-1, TEM-1, ESBL producing strain, 5×10^5 cfu/mL, cation-adjusted Iso-Sensitest broth containing human Apo-transferrin
[4] = SR01358, KPC-2, ESBL and KPC-type carbapenemase producing strain, 5×10^5 cfu/mL, cation-adjusted Iso-Sensitest broth containing human Apo-transferrin, read-out: Minimum Inhibitory Concentration (MIC) K. pneumoniae SR01358
[5] = JMI2346, read-out: Minimum Inhibitory Concentration (MIC) A. baumannii JMI:2346
[6] = JMI7, read-out: Minimum Inhibitory Concentration (MIC) A. baumannii JMI:7
[7] = SR01358, read-out: Minimum Inhibitory Concentration (MIC) K. pneumoniae SR01358

Compound | MIC (A. baumannii JMI2346; [1]) [µg/mL] | MIC (A. baumannii JMI7; [2]) [µg/mL] | MIC (E. Coli JMI1890; [3]) [µg/mL] | MIC (K. pneumoniae SR01358; [4]) [µg/mL] | MIC (A. baumannii JMI2346; [5]) [µg/mL] | MIC (A. baumannii JMI7; [6]) [µg/mL] | MIC (E. Coli JMI1890) [µg/mL] | MIC (K. pneumoniae SR01358; [7]) [µg/mL]
C[C@@H]1S[C@@H]2[C@H](NC(=O)/C(=N\OC(C)(C)C(=O)[O-])c3csc(N)n3)C(=O)N2C(C(=O)[O-])=C1C[N+]12CCC(CNC(=O)C(=O)c3ccc(O)c(O)c3Cl)(CC1)CC2.[Na+] [Compound I-3] | 2 | 0.5 | 0.5 | ≤ 0.031 | – | – | – | –
C[C@@H]1S[C@@H]2[C@H](NC(=O)/C(=N\OC(C)(C)C(=O)[O-])c3csc(N)n3)C(=O)N2C(C(=O)[O-])=C1C[N@+]1(C)[C@@H]2CC[C@H]1C[C@@H](NC(=O)C(=O)c1cc(O)c(O)c(Cl)c1)C2.[Na+] [Compound I-12] | 4 | 1 | 0.25 | ≤ 0.031 | – | – | – | –
C[C@@H]1S[C@@H]2[C@H](NC(=O)/C(=N\O[C@@H](CC(=O)[O-])C(=O)[O-])c3csc(N)n3)C(=O)N2C(C(=O)[O-])=C1C[N@+]1(C)[C@@H]2CC[C@H]1C[C@@H](NC(=O)C(=O)c1cc(O)c(O)c(Cl)c1)C2.[Na+].[Na+] [Compound I-13] | 8 | 2 | 1 | 0.063 | – | – | – | –
C[C@@H]1S[C@@H]2[C@H](NC(=O)/C(=N\OC(C)(C)C(=O)[O-])c3csc(N)n3)C(=O)N2C(C(=O)[O-])=C1C[N+]12CCC(CNC(=O)C(=O)c3cc(O)c(O)c(Cl)c3)(CC1)CC2.[Na+] [Compound I-14] | 8 | 2 | 1 | ≤ 0.031 | – | – | – | –
C[C@@H]1S[C@@H]2[C@H](NC(=O)/C(=N\O[C@@H](CC(=O)[O-])C(=O)[O-])c3csc(N)n3)C(=O)N2C(C(=O)[O-])=C1C[N+]12CCC(CNC(=O)C(=O)c3cc(O)c(O)c(Cl)c3)(CC1)CC2.[Na+].[Na+] [Compound I-15] | 16 | 4 | 1 | – | – | – | – | –
C[C@@H]1S[C@@H]2[C@H](NC(=O)/C(=N\OC(C)(C)C(=O)[O-])c3csc(N)n3)C(=O)N2C(C(=O)O)=C1C[N@+]1(C)[C@@H]2CC[C@H]1C[C@@H](NC(=O)C(=O)c1ccc(O)c(O)c1Cl)C2 [Compound I-20] | – | – | – | – | 0.5 (≈ 0.61 µM) | 0.125 (≈ 0.152 µM) | 0.063 (≈ 0.0768 µM) | ≤ 0.031
CC[N+](CC)(CCN1C(=O)c2ccc(O)c(O)c2C1=O)CC1=C(C(=O)O)N2C(=O)[C@@H](NC(=O)/C(=N\OC(C)(C)C(=O)[O-])c3csc(N)n3)[C@H]2S[C@H]1C [Compound I-36] | 4 (≈ 5.26 µM) | 0.5 (≈ 0.658 µM) | 0.5 (≈ 0.658 µM) | 0.125 (≈ 0.165 µM) | – | – | – | –
C[C@@H]1S[C@@H]2[C@H](NC(=O)/C(=N\OC(C)(C)C(=O)[O-])c3csc(N)n3)C(=O)N2C(C(=O)O)=C1C[N@+]1(C)[C@@H]2CC[C@H]1C[C@@H](N1C(=O)c3ccc(O)c(O)c3C1=O)C2 [Compound I-38] | – | – | – | – | 0.5 (≈ 0.638 µM) | 0.25 (≈ 0.319 µM) | 0.25 (≈ 0.319 µM) | 0.063 (≈ 0.0804 µM)
C[C@@H]1S[C@@H]2[C@H](NC(=O)/C(=N\OC(C)(C)C(=O)[O-])c3csc(N)n3)C(=O)N2C(C(=O)O)=C1C[N+]12CCC(CN3C(=O)c4ccc(O)c(O)c4C3=O)(CC1)CC2 [Compound I-39] | 1 (≈ 1.28 µM) | 0.125 (≈ 0.159 µM) | 0.25 (≈ 0.319 µM) | 0.063 (≈ 0.0804 µM) | – | – | – | –
C[C@@H]1S[C@@H]2[C@H](NC(=O)/C(=N\OC(C)(C)C(=O)[O-])c3csc(N)n3)C(=O)N2C(C(=O)O)=C1C[N+]12CCC(CNC(=O)c3ccc(O)c(O)c3Cl)(CC1)CC2 [Compound I-40] | 4 (≈ 5.05 µM) | 1 (≈ 1.26 µM) | 0.5 (≈ 0.631 µM) | 0.063 (≈ 0.0795 µM) | – | – | – | –
C[C@@H]1S[C@@H]2[C@H](NC(=O)/C(=N\OC(C)(C)C(=O)[O-])c3csc(N)n3)C(=O)N2C(C(=O)[O-])=C1C[N+]12CCC(CNC(=O)c3cc(=O)c(O)c[nH]3)(CC1)CC2.[Na+] [Compound I-140] | – | 4 | 0.5 | ≤ 0.031 | – | – | – | –

More lines, main results first:

MIC (A. baumannii JMI2346; [1]) [µg/mL] | MIC (A. baumannii JMI7; [2]) [µg/mL] | MIC (E. Coli JMI1890; [3]) [µg/mL] | MIC (K. pneumoniae SR01358; [4]) [µg/mL] | Compound | MIC (A. baumannii JMI2346; [5]) [µg/mL] | MIC (A. baumannii JMI7; [6]) [µg/mL] | MIC (E. Coli JMI1890) [µg/mL] | MIC (K. pneumoniae SR01358; [7]) [µg/mL]
16 | 1 | 1 | ≤ 0.031 | C[C@@H]1S[C@@H]2[C@H](NC(=O)/C(=N\OC(C)(C)C(=O)[O-])c3csc(N)n3)C(=O)N2C(C(=O)[O-])=C1C[N+]1(CCN2C(=O)c3cc(O)c(O)cc3C2=O)CCCC1.[Na+] [Compound I-1] | – | – | – | –
– | 1 | 2 | ≤ 0.031 | C[C@@H]1S[C@@H]2[C@H](NC(=O)/C(=N\OC(C)(C)C(=O)[O-])c3csc(N)n3)C(=O)N2C(C(=O)[O-])=C1C[N+]1(CCn2[nH]c(=O)c3cc(O)c(O)cc3c2=O)CCCC1.[Na+] [Compound I-4] | – | – | – | –
16 | 1 | 1 | 0.25 | C[C@@H]1S[C@@H]2[C@H](NC(=O)/C(=N\OC(C)(C)C(=O)[O-])c3csc(N)n3)C(=O)N2C(C(=O)[O-])=C1C[N+]1(CCNC(=O)C(=O)c2cc(O)c(O)c(Cl)c2)CCCC1.[Na+] [Compound I-8] | – | – | – | –
8 | 1 | 1 | ≤ 0.031 | C[C@@H]1S[C@@H]2[C@H](NC(=O)/C(=N\OC(C)(C)C(=O)[O-])c3csc(N)n3)C(=O)N2C(C(=O)[O-])=C1C[N@+]12CCC[C@H]1CN(C(=O)C(=O)c1cc(O)c(O)c(Cl)c1)CC2.[Na+] [Compound I-10] | – | – | – | –
16 | 2 | 2 | 0.063 | C[C@@H]1S[C@@H]2[C@H](NC(=O)/C(=N\O[C@@H](CC(=O)[O-])C(=O)[O-])c3csc(N)n3)C(=O)N2C(C(=O)[O-])=C1C[N@+]12CCC[C@H]1CN(C(=O)C(=O)c1cc(O)c(O)c(Cl)c1)CC2.[Na+].[Na+] [Compound I-11] | – | – | – | –
8 | 1 | 0.5 | ≤ 0.031 | C[C@@H]1S[C@@H]2[C@H](NC(=O)/C(=N\OC(C)(C)C(=O)[O-])c3csc(N)n3)C(=O)N2C(C(=O)[O-])=C1C[N+]12CCC(CC1)N(C(=O)C(=O)c1cc(O)c(O)c(Cl)c1)CC2.[Na+] [Compound I-16] | – | – | – | –
16 | 4 | 2 | ≤ 0.031 | C[C@@H]1S[C@@H]2[C@H](NC(=O)/C(=N\O[C@@H](CC(=O)[O-])C(=O)[O-])c3csc(N)n3)C(=O)N2C(C(=O)[O-])=C1C[N+]12CCC(CC1)N(C(=O)C(=O)c1cc(O)c(O)c(Cl)c1)CC2.[Na+].[Na+] [Compound I-17] | – | – | – | –
4 (≈ 5.18 µM) | 0.5 (≈ 0.647 µM) | 0.5 (≈ 0.647 µM) | ≤ 0.031 | C[C@@H]1S[C@@H]2[C@H](NC(=O)/C(=N\OC(C)(C)C(=O)[O-])c3csc(N)n3)C(=O)N2C(C(=O)O)=C1C[N+]1(CCNN2C(=O)c3cc(O)c(O)cc3C2=O)CCCC1 [Compound I-26] | – | – | – | –
4 (≈ 5.17 µM) | 0.5 (≈ 0.646 µM) | 0.5 (≈ 0.646 µM) | ≤ 0.031 | C[C@@H]1S[C@@H]2[C@H](NC(=O)/C(=N\OC(C)(C)C(=O)[O-])c3csc(N)n3)C(=O)N2C(C(=O)O)=C1C[N+]1(CCON2C(=O)c3cc(O)c(O)cc3C2=O)CCCC1 [Compound I-27] | – | – | – | –
4 (≈ 5.21 µM) | 1 (≈ 1.3 µM) | 0.5 (≈ 0.651 µM) | 0.125 (≈ 0.163 µM) | CC[N+](CC)(CCNC(=O)c1ccc(O)c(O)c1Cl)CC1=C(C(=O)O)N2C(=O)[C@@H](NC(=O)/C(=N\OC(C)(C)C(=O)[O-])c3csc(N)n3)[C@H]2S[C@H]1C [Compound I-37] | – | – | – | –
4 (≈ 5.14 µM) | 1 (≈ 1.28 µM) | 1 (≈ 1.28 µM) | 0.063 (≈ 0.0809 µM) | C[C@@H]1S[C@@H]2[C@H](NC(=O)/C(=N\OC(C)(C)C(=O)[O-])c3csc(N)n3)C(=O)N2C(C(=O)O)=C1C[N@+]12CCC[C@H]1CN(C(=O)c1ccc(O)c(O)c1Cl)CC2 [Compound I-41] | – | – | – | –
2 (≈ 2.59 µM) | 0.5 (≈ 0.648 µM) | 0.5 (≈ 0.648 µM) | 0.063 (≈ 0.0816 µM) | C[C@@H]1S[C@@H]2[C@H](NC(=O)/C(=N\OC(C)(C)C(=O)[O-])c3csc(N)n3)C(=O)N2C(C(=O)O)=C1C[N+]1(CCN2C(=O)c3ccc(O)c(O)c3C2=O)CCCCC1 [Compound I-42] | – | – | – | –
4 (≈ 5.13 µM) | 1 (≈ 1.28 µM) | 0.5 (≈ 0.641 µM) | 0.063 (≈ 0.0807 µM) | C[C@@H]1S[C@@H]2[C@H](NC(=O)/C(=N\OC(C)(C)C(=O)[O-])c3csc(N)n3)C(=O)N2C(C(=O)O)=C1C[N+]1(CCNC(=O)c2ccc(O)c(O)c2Cl)CCCCC1 [Compound I-43] | – | – | – | –
8 (≈ 10.6 µM) | 2 (≈ 2.64 µM) | 0.5 (≈ 0.66 µM) | 0.125 (≈ 0.165 µM) | C[C@@H]1S[C@@H]2[C@H](NC(=O)/C(=N\OC(C)(C)C(=O)[O-])c3csc(N)n3)C(=O)N2C(C(=O)O)=C1C[N+]1(CCN2C(=O)c3ccc(O)c(O)c3C2=O)CCCC1 [Compound I-51] | – | – | – | –
– | 1 | 1 | ≤ 0.031 | C[C@@H]1S[C@@H]2[C@H](NC(=O)/C(=N\OC(C)(C)C(=O)[O-])c3csc(N)n3)C(=O)N2C(C(=O)[O-])=C1C[N+]1(C)C[C@H]2CN(C(=O)c3cc(O)c(O)c(Cl)c3)C[C@H]2C1.[Na+] (stereo partly drawn) [Compound I-63] | – | – | – | –
– | – | 8 (≈ 10.9 µM) | ≤ 0.031 | C[C@@H]1S[C@@H]2[C@H](NC(=O)/C(=N\OC(C)(C)C(=O)[O-])c3csc(N)n3)C(=O)N2C(C(=O)O)=C1C[N+]1(CCNC(=O)c2cc(=O)c(O)c[nH]2)CCCC1 [Compound I-130] | – | – | – | –
